In US8440710B2, “HSL inhibitors useful in the treatment of diabetes” (Hoffmann-La Roche Inc., priority 2009, dated 2013) one finds IC50 data, which are given here for 27 molecules.

The assay deals with T1, human HSL (Homo sapiens, UniProt Q05469).
T1 construct: generate a full length human HSL ORF with a 3′-His6 tag; made in house; host or cells: High 5 insect cells (baculovirus, pFast-BAC)
T1 sequence (Q05469 1-1076): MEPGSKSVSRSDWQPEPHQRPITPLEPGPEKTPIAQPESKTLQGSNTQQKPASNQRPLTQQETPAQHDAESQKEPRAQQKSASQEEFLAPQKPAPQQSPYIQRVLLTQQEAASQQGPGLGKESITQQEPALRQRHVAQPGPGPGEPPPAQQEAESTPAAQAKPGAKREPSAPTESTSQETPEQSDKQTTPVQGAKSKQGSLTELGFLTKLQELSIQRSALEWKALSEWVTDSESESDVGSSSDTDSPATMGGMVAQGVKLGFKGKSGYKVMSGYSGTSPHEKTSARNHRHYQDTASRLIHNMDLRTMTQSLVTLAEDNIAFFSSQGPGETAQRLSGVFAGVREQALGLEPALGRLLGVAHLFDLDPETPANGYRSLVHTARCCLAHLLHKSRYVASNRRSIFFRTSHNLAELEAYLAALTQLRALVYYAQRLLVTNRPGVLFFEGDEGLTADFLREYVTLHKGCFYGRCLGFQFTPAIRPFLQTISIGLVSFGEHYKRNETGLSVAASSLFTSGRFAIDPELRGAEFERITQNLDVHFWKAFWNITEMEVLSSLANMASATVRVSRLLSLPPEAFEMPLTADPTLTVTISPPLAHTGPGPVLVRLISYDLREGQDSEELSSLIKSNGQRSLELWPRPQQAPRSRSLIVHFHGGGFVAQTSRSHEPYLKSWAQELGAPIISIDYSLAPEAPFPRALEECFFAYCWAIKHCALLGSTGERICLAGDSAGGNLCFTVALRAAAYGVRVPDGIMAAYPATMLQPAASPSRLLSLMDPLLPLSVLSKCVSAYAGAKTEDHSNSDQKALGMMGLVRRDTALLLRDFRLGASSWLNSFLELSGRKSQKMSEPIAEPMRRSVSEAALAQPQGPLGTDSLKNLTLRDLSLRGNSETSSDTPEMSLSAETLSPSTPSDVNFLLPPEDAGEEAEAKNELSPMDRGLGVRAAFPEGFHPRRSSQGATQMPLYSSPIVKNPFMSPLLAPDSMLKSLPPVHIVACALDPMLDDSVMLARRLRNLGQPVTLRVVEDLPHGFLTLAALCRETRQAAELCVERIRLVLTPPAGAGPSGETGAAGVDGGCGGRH
Nature of the assay: Human Hormone-Sensitive Lipase (HSL) enzyme inhibition assay (colorimetric, DMPT substrate). It counts as biochemical. The following applies: human full length HSL-His6, 2,3-dimercapto-1-propanol tributyrate substrate, 37° C. 20 minutes, absorbance at 405 nm; read-out: HSL hum IC50. The method, boiled down: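 Full-length human HSL with C-terminal His6, expressed in baculovirus-infected High 5 cells and Ni-NTA purified, was added (15 ug/ml stock) to 1.5 mM DMPT in 100 mM MOPS pH 7.2, 0.2 mg/ml fatty acid-free BSA containing compound. After 20 min at 37 °C, DTNB with SDS/Triton X-100 was added; A405 read after 15 min at RT.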
In the case of `CC(C)(C)c1ccc(N2CC[C@]3(CC[C@@H](C(O)c4ccn[nH]4)CC3)C2=O)cc1` (stereo partly drawn) [Example 363, (5α,8β)-2-(4-tert-Butyl-phenyl)-8-[hydroxy-(2H-pyrazol-3-yl)-methyl]-2-aza-spiro[4.5]decan-1-one], the IC50 (usually the concentration that inhibits the measured activity by half) stood at 30 nM. The same measure for `CCC[C@]1(O)CC[C@]2(CCN(c3ccc(OCCOC)cc3)C2=O)CC1` [Example 95, (5α,8α)-8-Hydroxy-2-[4-(2-methoxy-ethoxy)-phenyl]-8-propyl-2-aza-spiro[4.5]decan-1-one]: 240 nM; for `CCc1ccc(CCN2CC[C@]3(CC[C@@](O)(C(C)C)CC3)C2=O)cc1` [Example 161, (5α,8α)-2-(4-Ethylphenethyl)-8-hydroxy-8-isopropyl-2-aza-spiro[4.5]decan-1-one]: 10 nM; for `C[C@]1(O)CC[C@@]2(CCN(c3ccc(OC(F)(F)F)cc3)C2=O)CC1` [Example 58, (5α,8β)-8-Hydroxy-8-methyl-2-(4-trifluoromethoxy-phenyl)-2-aza-spiro[4.5]decan-1-one]: 950 nM. The same measure for `C[C@]1(O)CC[C@]2(CCN(c3ccc(OC(F)(F)F)cc3)C2=O)CC1` [Example 57, (5α,8α)-8-Hydroxy-8-methyl-2-(4-trifluoromethoxy-phenyl)-2-aza-spiro[4.5]decan-1-one]: 70 nM.

With `CC(C)Oc1ccc(N2CC[C@]3(CC[C@@](O)(C4CC4)CC3)C2=O)cc1` [Example 197, (5α,8α)-8-cyclopropyl-8-hydroxy-2-(4-isopropoxyphenyl)-2-aza-spiro[4.5]decan-1-one], the IC50 amounted to 20 nM. The same measure for `COCC[C@]1(OC)CC[C@]2(CCN(c3ccc(OC(F)(F)F)cc3)C2=O)CC1` [Example 120, (5α,8α)-8-Methoxy-8-(2-methoxy-ethyl)-2-(4-trifluoromethoxy-phenyl)-2-aza-spiro[4.5]decan-1-one]: 100 nM; for `O=C1N(c2ccc(CC(F)(F)F)cc2)CC[C@]12CC[C@](O)(COCC(F)F)CC2` [Example 302, (5α,8β)-8-(2,2-Difluoro-ethoxymethyl)-8-hydroxy-2-[4-(2,2,2-trifluoro-ethyl)-phenyl]-2-aza-spiro[4.5]decan-1-one]: 510 nM. Under `C[C@@H](Oc1ccc(N2CC[C@]3(CC[C@@](O)(COCC(F)(F)F)CC3)C2=O)cn1)C(F)(F)F` [Example 327, (5α,8α)-8-Hydroxy-8-(2,2,2-trifluoro-ethoxymethyl)-2-[6-((R)-2,2,2-trifluoro-1-methyl-ethoxy)-pyridin-3-yl]-2-aza-spiro[4.5]decan-1-one] stands 30 nM; under `CC(C)[C@]1(O)CC[C@]2(CCN(c3ccc(OC(F)(F)F)cc3)C2=O)CC1` [Example 68, (5α,8α)-8-Hydroxy-8-isopropyl-2-(4-trifluoromethoxy-phenyl)-2-aza-spiro[4.5]decan-1-one], 30 nM; under `O=C1N(c2ccc(OCC(F)(F)F)cc2)CC[C@]12CC[C@@](O)(COCC1CCCC1)CC2` [Example 273, (5α,8α)-8-[(Cyclopentylmethoxy)methyl]-8-hydroxy-2-[4-(2,2,2-trifluoro-ethoxy)-phenyl]-2-aza-spiro[4.5]decan-1-one], 20 nM. `O=C1N(c2ccc(OCC(F)(F)F)cc2)CC[C@]12CC[C@@](O)(COCC(F)F)CC2` [Example 244, (5α,8α)-8-(2,2-Difluoro-ethoxymethyl)-8-hydroxy-2-[4-(2,2,2-trifluoro-ethoxy)-phenyl]-2-aza-spiro[4.5]decan-1-one]: the IC50 stood at 30 nM. Under `CC(C)Oc1ccc(N2CC[C@]3(CC[C@@](O)(C4CCCC4)CC3)C2=O)cc1` [Example 198, (5α,8α)-8-cyclopentyl-8-hydroxy-2-(4-isopropoxyphenyl)-2-aza-spiro[4.5]decan-1-one] stands 10 nM.

Turning to `Cn1nnc(Br)c1[C@]1(O)CC[C@]2(CCN(c3ccc(C(F)(F)F)cc3)C2=O)CC1` [Example 214, (5α,8α)-8-(5-Bromo-3-methyl-3H-[1,2,3]triazol-4-yl)-8-hydroxy-2-(4-trifluoromethyl-phenyl)-2-aza-spiro[4.5]decan-1-one], the IC50 was found to be 50 nM.

Turning to `COCCCc1ccc(N2CC[C@]3(CC[C@@](O)(C(C)C)CC3)C2=O)cc1` [Example 130, (5α,8α)-8-Hydroxy-8-isopropyl-2-(4-(3-methoxypropyl)phenyl)-2-aza-spiro[4.5]decan-1-one], the IC50 was 50 nM. Under `O=C(NCc1cnccn1)O[C@H]1CC[C@@]2(CCN(c3ccc(OC(F)(F)F)cc3)C2=O)CC1` [Example 28, (Pyrazin-2-ylmethyl)-carbamic acid [(5α,8β)-1-oxo-2-(4-trifluoromethoxy-phenyl)-2-aza-spiro[4.5]dec-8-yl]ester] stands 80 nM. The same measure for `CCOC[C@]1(O)CC[C@]2(CCN(c3ccc(O[C@@H](C)C(F)(F)F)cc3)C2=O)CC1` [Example 251, (5α,8α)-8-Ethoxymethyl-8-hydroxy-2-[4-((S)-2,2,2-trifluoro-1-methyl-ethoxy)-phenyl]-2-aza-spiro[4.5]decan-1-one]: 10 nM; for `C=CCC[C@]1(O)CC[C@@]2(CCN(c3ccc(OC(F)(F)F)cc3)C2=O)CC1` [Example 65, (5α,8β)-8-But-3-enyl-8-hydroxy-2-(4-trifluoromethoxy-phenyl)-2-aza-spiro[4.5]decan-1-one]: 440 nM; for `COCCc1ccc(N2CC[C@]3(CC[C@@](O)(CC(C)(C)C)CC3)C2=O)cc1` [Example 126, (5α,8α)-8-(2,2-Dimethyl-propyl)-8-hydroxy-2-[4-(2-methoxy-ethyl)-phenyl]-2-aza-spiro[4.5]decan-1-one]: 10 nM.

As for `O=C(NCCO)O[C@H]1CC[C@@]2(CCN(c3ccc(OC(F)(F)F)cc3)C2=O)CC1` [Example 27, (2-Hydroxy-ethyl)-carbamic acid [(5α,8β)-1-oxo-2-(4-trifluoromethoxy-phenyl)-2-aza-spiro[4.5]dec-8-yl]ester], the IC50 was 180 nM. With `O=C1CCCN1C[C@]1(O)CC[C@]2(CCN(c3ccc(OCC(F)(F)F)cc3)C2=O)CC1` [Example 367, (5α,8α)-8-Hydroxy-8-(2-oxo-pyrrolidin-1-ylmethyl)-2-[4-(2,2,2-trifluoro-ethoxy)-phenyl]-2-aza-spiro[4.5]decan-1-one], the IC50 amounted to 80 nM. Under `CCCC[C@]1(O)CC[C@@]2(CCN(c3ccc(OCCOC)cc3)C2=O)CC1` [Example 97, (5α,8β)-8-Butyl-8-hydroxy-2-[4-(2-methoxy-ethoxy)-phenyl]-2-aza-spiro[4.5]decan-1-one] stands 1820 nM; under `C[C@]1(O)CC[C@@]2(CCN(c3ccc(C4CC4)cc3)C2=O)CC1` [Example 74, (5α,8β)-2-(4-Cyclopropyl-phenyl)-8-hydroxy-8-methyl-2-aza-spiro[4.5]decan-1-one], 800 nM; under `CC(C)[C@]1(O)CC[C@]2(CCN(c3ccc(C(O)C(C)(F)F)cc3)C2=O)CC1` (stereo partly drawn) [Example 191, (5α,8α)-2-(4-(2,2-difluoro-1-hydroxypropyl)phenyl)-8-hydroxy-8-isopropyl-2-aza-spiro[4.5]decan-1-one], 50 nM. Under `CC(C)[C@]1(O)CC[C@]2(CCN(c3ccc(OCC(F)(F)F)nc3)C2=O)CC1` [Example 108, (5α,8α)-8-Hydroxy-8-isopropyl-2-(6-(2,2,2-trifluoroethoxy)pyridin-3-yl)-2-aza-spiro[4.5]decan-1-one] stands 20 nM; under `CC[C@]1(O)CC[C@]2(CCN(c3ccc(OCC(F)(F)F)nc3)C2=O)CC1` [Example 168, (5α,8α)-8-Ethyl-8-hydroxy-2-[6-(2,2,2-trifluoro-ethoxy)-pyridin-3-yl]-2-aza-spiro[4.5]decan-1-one], 70 nM; under `CCCOC[C@]1(O)CC[C@]2(CCN(c3ccc(O[C@H](C)C(F)(F)F)cc3)C2=O)CC1` [Example 270, (5α,8α)-8-Hydroxy-8-propoxymethyl-2-[4-((R)-2,2,2-trifluoro-1-methyl-ethoxy)-phenyl]-2-aza-spiro[4.5]decan-1-one], 10 nM.
